# In patent US20220017870A1, “METHODS OF IDENTIFYING THERAPEUTIC TARGETS FOR TREATING ANGIOGENESIS” (Advanced Solutions Life Sciences, LLC, priority 2020, published 2022):
# Test system: growing MVs (neovessels)
# Assay: Effect of DYRK3 inhibition on MV growth in 3D culture
# Assay type: cell-based, human
# Procedure: FIG. 5. Effect of DYRK3 inhibition on MV growth. Phase contrast images of MVs after 9 days of culture, with a single 3-hour exposure of DYRK3 inhibitor after initial neovessel sprouting (day 4). […] Scale=100 μm. Arrows point to neovessels.
# For all assays, MVs isolated from human adipose tissue via a limited collagen digestion are embedded (100,000 MV/ml) in a 3 mg/ml collagen gel. This formulation is compatible with a variety of multi-well plates. Whenever possible, assessments are made daily over the course of 1 week, including image acquisition for HCA.
# DYRK3 and angiogenesis: To further explore DYRK3 in this model, growing MVs are treated with the small molecule GSK626616, a known DYRK3 inhibitor. Cultures with growing neovessels (in RPMI with B27 and 50 ng/ml VEGF) were treated with 10 μM GSK626616 for 3 hours, and then returned to medium without inhibitor for an additional 6 days.
# [1] = 10 μM for 3 hours, then medium without inhibitor for additional 6 days, RPMI with B27 and 50 ng/ml VEGF, qualitative, vs untreated controls
smiles,measurement,setting,value
O=C1NC(=Nc2c(Cl)cccc2Cl)S/C1=C\c1ccc2nccnc2c1 [GSK626616],impact on parent MV,[1],did not impact parent MV
same,neovessel growth,[1],stopped neovessel growth
same,neovessel regression,[1],may have even caused neovessel regression
same,neovessels apparent in phase contrast images,"after 9 days of culture, single 3-hour exposure after initial neovessel sprouting (day 4)",Fewer neovessels are apparent
